From patent publication US20220274980A1, “PHARMACOLOGICAL INHIBITORS OF THE ENL YEATS DOMAIN” (priority 2019, published 2022)
Like-named read-outs stand apart in the source and are kept apart here.

Legend:
ENL(YEATS)-HiBiT [1] = target: T1, ENL(YEATS)-HiBiT (Homo sapiens, UniProt Q03111); conditions: read-out: ENL YEATS CETSA (IC50); Table 2; OCI/AML-2 cells expressing ENL(YEATS)-HiBiT
T1 sequence (Q03111 1-138 limits assumed): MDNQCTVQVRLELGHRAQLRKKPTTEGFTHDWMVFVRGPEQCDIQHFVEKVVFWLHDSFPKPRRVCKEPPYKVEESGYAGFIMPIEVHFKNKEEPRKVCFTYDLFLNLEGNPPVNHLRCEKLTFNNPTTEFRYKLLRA
Description: (§3) Cellular thermal shift assay (CETSA). […] Cells were transferred to 384-well (20,000 cells per well in 20 μL) or 1,536-well (3,000 cells per well in 4 μL) plates and drug was transferred using a 100 nL pin tool for 384-well plates or acoustic transfer (Labcyte, Echo Liquid Handler) for 1,536-well plates. Luminescent detection of HiBiT was performed by combining an equal volume of Nano-Glo HiBiT Lytic Reagent (Promega, HiBiT Lytic Detection System, Cat. No. N3040) in each well. […] Briefly, cells were treated with drug, washed with PBS, heated to various temperatures in a thermocycler, cooled to room temperature, lysed by three rounds of freeze-thaw, and then clarified lystaes were subjected to immunoblot analysis.

[2] = target: T2, ENL YEATS domain (association with H3K27cr) (Homo sapiens, UniProt Q03111); experiment: biochemical; conditions: ENL (YEATS)-H3K27cr HTRF (IC50, μM)
T2 sequence (Q03111 1-148): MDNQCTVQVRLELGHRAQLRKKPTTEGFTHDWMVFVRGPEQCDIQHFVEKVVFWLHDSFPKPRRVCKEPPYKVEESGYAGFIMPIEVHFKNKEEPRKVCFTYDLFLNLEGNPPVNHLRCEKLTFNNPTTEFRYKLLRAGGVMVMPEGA
Description: (§1) Protein Production. Double stranded DNA fragments encoding the protein sequence of ENL YEATS(1-148) were synthesized (IDT DNA) for assembly-based cloning into a modified expression vector backbone derived from pET21a (Novagen). The protein was fused to a StrepII-SUMO and 6×His tag on the amino and carboxy terminus, respectively. Transformed BL21(DE3) cells (New England Biolabs) were grown at 37° C. in 2×YT growth medium to an OD600 of 0.6. Protein expression was induced at 25° C. with the addition of isopropyl-β-D-thiogalactopyranoside (IPTG) to a final concentration of 0.4 mM. The culture was harvested by centrifugation following a 20-hour incubation and subsequently purified by immobilized metal affinity chromatography. Cells were resuspended 50 mM Tris-HCl pH 8.0, 300 mM NaCl, 10% glycerol, 10 mM imidazole, 1 mM DTT containing Complete EDTA-free protease inhibitor (Roche) and lysed by two passes through a MicroFluidizer at 10,000 psi. The lysate was clarified by centrifugation at 16,000 rpm for 30 minutes at 4° C. The supernatant was passed over NiNTA agarose (QIAGEN) and the protein was eluted in 50 mM Tris-HCl pH 8.0, 300 mM NaCl, 10% glycerol, 250 mM imidazole, 1 mM DTT. Fractions containing the ENL YEATS(1-148) fusion protein were buffer exchanged into 100 mM Tris-HCl pH 8.0, 150 mM NaCl, 1 mM EDTA, 1 mM DTT using PD10 desalting columns (GE Life Sciences). Ulp1 protease was added to cleave the StrepII-SUMO fusion and the reaction mixture was incubated overnight at 4° C. The cleavage reaction mixture was loaded onto a StrepTrap column (GE Life Sciences) and ENL YEATS(1-148) was recovered in the flow through. BRD4 BD1 was purchased from Cayman (Cat. No. 11720).
(§2) Homogenous time-resolved FRET (HTRF) histone-binding assays. Both HTRF assays were performed by combining recombinant protein and synthetic histone peptide in assay buffer (25 mM HEPES pH 7, 20 mM NaCl, 0.2% Pluronic F-127, and 0.05% BSA) with 1 nM LanthaScreen Eu-anti-His Tag antibody (ThermoFisher, Cat. No, PV5597) and 8.9 nM SureLight allophycocyanin-streptavidin (Perkin Elmer, APC-SA, Cat. No. CR130-100). ENL YEATS was used at 5 nM and BRD4 BD1 was used at 10 nM. ENL assays were performed with H3(13-32)K27cr (13.3 and 100 nM, respectively), custom synthesized at ABclonal (N-terminal biotin, C-terminal amide); BRD4 BD1 assay was performed with 13.3 nM tetra-acetylated H4 (BioVision, Cat. No. 7144-01). Once all reagents were combined (with or without peptide), 10 μL was dispensed per well into black 384-well low-volume plates (Corning, Cat. No. 3821) and drug was added by pin tool transfer (Biomek FX). Assays were incubated for 2 or more hours before measurement of HTRF signal on a PHERAstar plate reader (BMG Labtech; simultaneous dual emission; excitation=337 nm, emission 1=665 nm, emission 2=620 nm). HTRF signal (ratio of emission 1 to emission 2) from vehicle-treated wells (maximum signal) and no-peptide-control wells (minimum signal) were used to calculate percent inhibition for drug-treated wells.

ENL(YEATS)-HiBiT [3] = target: T1, ENL(YEATS)-HiBiT; experiment: cell-based
Description: as §3

BRD4 bromodomain 1 (BD1) = target: T3, BRD4 bromodomain 1 (BD1) (Homo sapiens, UniProt O60885); experiment: BRD4 (BD1)-H4 tetra-acetylated HTRF histone-binding assay
T3 construct: Selectivity against BRD4 bromodomain 1 (BD1), measured by HTRF; His; purchased Cayman 11720
Description: as §1, §2

Row | SMILES | IC50 (ENL(YEATS)-HiBiT [1]) | IC50 ([2]; Table 1) | IC50 ([2]; Table 2) | IC50 (ENL(YEATS)-HiBiT [3]) | IC50 (BRD4 bromodomain 1 (BD1); Table 1) | IC50 (BRD4 bromodomain 1 (BD1); Table 2)
1 | O=C(N[C@H]1CCc2ccccc21)c1ccc2nc(-c3ccccc3)cn2c1 [Compound 79] | > 50 µM | > 50 µM | > 50 µM | > 50 µM | – | –
2 | CC1(NC(=O)c2ccc3nc(-c4ccccc4)cn3c2)CCC1 [Compound 73] | > 50 µM | > 50 µM | > 50 µM | > 50 µM | – | –
3 | CN(C(=O)c1ccc2nc(-c3ccccc3)cn2c1)C1CCC1 [Compound 81] | > 50 µM | > 50 µM | > 50 µM | > 50 µM | – | –
4 | O=C(NC1C2CC1C2)c1ccc2nc(-c3ccccc3)cn2c1 (stereo not drawn) [Compound 84] | > 50 µM | > 50 µM | > 50 µM | > 50 µM | – | –
5 | O=C(NC1CC(O)C1)c1ccc2nc(-c3ccccc3)cn2c1 (stereo not drawn) [Compound 76] | – | > 50 µM | > 50 µM | 35.4 µM | – | –
6 | CC(C)(C)C1CC(NC(=O)c2ccc3nc(-c4ccccc4)cn3c2)C1 (stereo not drawn) [Compound 120] | > 50 µM | > 50 µM | > 50 µM | > 50 µM | – | –
7 | O=C(NC1(CO)CCC1)c1ccc2nc(-c3ccccc3)cn2c1 [Compound 72] | > 50 µM | > 50 µM | > 50 µM | > 50 µM | – | –
8 | O=C(N[C@@H]1CC[C@@H]1c1ccccc1)c1ccc2nc(-c3ccccc3)cn2c1 [Compound 115] | > 50 µM | > 50 µM | > 50 µM | > 50 µM | – | –

Second part, the molecule after the results:

Row | IC50 (ENL(YEATS)-HiBiT [1]) | IC50 ([2]; Table 1) | IC50 ([2]; Table 2) | IC50 (ENL(YEATS)-HiBiT [3]) | IC50 (BRD4 bromodomain 1 (BD1); Table 1) | IC50 (BRD4 bromodomain 1 (BD1); Table 2) | SMILES
9 | > 50 µM | > 50 µM | > 50 µM | > 50 µM | – | – | O=C(NC1Cc2ccccc2C1)c1ccc2nc(-c3ccccc3)cn2c1 [Compound 77]
10 | – | 6.8 µM | 6.8 µM | 80 µM | > 50 µM | > 50 µM | O=C(NCc1cccnc1)c1ccc2nc(-c3ccccc3)cn2c1 [Compound 9]
11 | > 50 µM | > 50 µM | > 50 µM | > 50 µM | – | – | O=C(NC1CC(F)(F)C1)c1ccc2nc(-c3ccccc3)cn2c1 [Compound 75]
12 | > 50 µM | > 50 µM | > 50 µM | > 50 µM | – | – | O=C(NC1(c2ccccc2)CCC1)c1ccc2nc(-c3ccccc3)cn2c1 [Compound 83]
13 | – | 2.9 µM | 2.9 µM | 80 µM | > 50 µM | > 50 µM | CC(C)NC(=O)c1ccc2nc(-c3ccc(C#N)cc3)cn2c1 [Compound 4]
14 | – | 10 µM | 10 µM | 19 µM | – | – | C#CC1CC(NC(=O)c2ccc3nc(-c4ccccc4)cn3c2)C1 (stereo not drawn) [Compound 117]
15 | – | 0.163 µM | 0.163 µM | 7.75 µM | – | – | CC1CCCCN1CCNS(=O)(=O)Nc1cccc(-c2cn3cc(C(=O)NC4CCC4)ccc3n2)c1 (stereo not drawn) [Compound 96]
16 | – | 4.5 µM | 4.5 µM | 80 µM | > 50 µM | > 50 µM | CC(C)NC(=O)c1ccc2nc(-c3cccc(C#N)c3)cn2c1 [Compound 18]
17 | – | 0.206 µM | 0.206 µM | 2.8 µM | – | – | O=C(NC1CCC1)c1ccc2nc(-c3cccc(NS(=O)(=O)NCCN4CCC(F)(F)CC4)c3)cn2c1 [Compound 97]
18 | – | 4.1 µM | 4.1 µM | 62 µM | > 50 µM | > 50 µM | CC(C)NC(=O)c1ccc2nc(-c3ccncc3)cn2c1 [Compound 5]
